From patent publication US8741897B2, “Glucocorticoid mimetics, methods of making them, pharmaceutical compositions and uses thereof” (Boehringer Ingelheim Pharmaceuticals Inc., priority 2003, dated 2014)

Tests used:
[1] = molecular target: T1, human glucocorticoid receptor (GR) complex (Homo sapiens, UniProt P04150); assay: Glucocorticoid receptor competitive binding assay (fluorescence polarization, TAMRA-labeled dexamethasone probe); details: compounds of Formula (IA)
T1 construct: made in house; host or cells: insect expression system (baculovirus lysate)
T1 sequence (P04150 1-777): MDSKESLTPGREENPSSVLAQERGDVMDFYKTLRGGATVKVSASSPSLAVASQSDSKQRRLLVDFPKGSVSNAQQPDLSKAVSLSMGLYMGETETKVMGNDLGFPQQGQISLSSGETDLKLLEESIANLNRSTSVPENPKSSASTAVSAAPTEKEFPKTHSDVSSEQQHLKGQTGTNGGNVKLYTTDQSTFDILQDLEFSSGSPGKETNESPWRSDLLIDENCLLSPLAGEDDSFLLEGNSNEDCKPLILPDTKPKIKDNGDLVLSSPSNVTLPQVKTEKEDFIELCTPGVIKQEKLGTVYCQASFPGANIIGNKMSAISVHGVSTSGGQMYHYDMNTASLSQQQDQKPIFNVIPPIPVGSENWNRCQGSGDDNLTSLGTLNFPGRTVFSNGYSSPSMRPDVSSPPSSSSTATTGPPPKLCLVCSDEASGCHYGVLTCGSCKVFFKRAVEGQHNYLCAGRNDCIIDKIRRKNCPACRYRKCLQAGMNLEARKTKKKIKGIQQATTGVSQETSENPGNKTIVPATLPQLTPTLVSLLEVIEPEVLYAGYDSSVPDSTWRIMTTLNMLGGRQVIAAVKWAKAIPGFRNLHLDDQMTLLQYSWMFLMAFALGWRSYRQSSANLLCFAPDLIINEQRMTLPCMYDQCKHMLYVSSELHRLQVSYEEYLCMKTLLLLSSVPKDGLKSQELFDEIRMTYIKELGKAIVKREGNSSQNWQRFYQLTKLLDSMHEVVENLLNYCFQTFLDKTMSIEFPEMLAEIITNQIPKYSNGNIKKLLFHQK
Outline: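 Fluorescence-polarization competition against 15 nM TAMRA-dexamethasone (stock added to the mix) for human GR complex from baculovirus lysate diluted 1:170. Buffer: 10 mM TES, 50 mM KCl, 20 mM Na2MoO4, 1.5 mM EDTA, 0.04% CHAPS, 10% glycerol, 1 mM DTT, pH 7.4. IC50 from 4-parameter logistic fit.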

[2] = test system: glucocorticoid receptor function; assay: one or more of the above assays (GR binding and glucocorticoid receptor cell assays: aromatase, IL-6, TAT, MMTV-Luc, IL-8, ICAM-Luc); assay type: cell-based; details: assay not specified per compound

Row | Compound | activity in the GR binding assay [1] | activity as agonists of the glucocorticoid receptor function in one or more of the above assays [2]
1 | COc1ccc(F)cc1C(C)(C)CC(O)(Cc1cc2cc(C(F)(F)F)ncc2[nH]1)C(F)(F)F (stereo not drawn) [1,1,1-Trifluoro-4-(5-fluoro-2-methoxyphenyl)-4-methyl-2-(5-trifluoromethyl-1H-pyrrolo[2,3-c]pyridin-2-ylmethyl)pentan-2-ol] | potent activity | potent agonists
2 | CC(C)(CC(O)(Cc1cc2ccccc2[nH]1)C(F)(F)F)c1ccccc1C(F)(F)F (stereo not drawn) [1,1,1-Trifluoro-2-(1H-indol-2-ylmethyl)-4-methyl-4-(2-trifluoromethylphenyl)pentan-2-ol] | potent activity | potent agonists
3 | Cc1ccc(C(C)(C)CC(O)(Cc2cc3ccccc3[nH]2)C(F)(F)F)cc1F (stereo not drawn) [1,1,1-Trifluoro-4-(3-fluoro-4-methylphenyl)-2-(1H-indol-2-ylmethyl)-4-methylpentan-2-ol] | potent activity | potent agonists
4 | CC(C)(CC(O)(Cc1ccnc2ccccc12)C(F)(F)F)c1ccccc1F (stereo not drawn) [1,1,1-Trifluoro-4-(2-fluorophenyl)-4-methyl-2-quinolin-4-ylmethylpentan-2-ol] | potent activity | potent agonists
5 | CC(C)(CC(O)(Cc1ccnc2ccccc12)C(F)(F)F)c1cccc(F)c1 (stereo not drawn) [1,1,1-Trifluoro-4-(3-fluorophenyl)-4-methyl-2-quinolin-4-ylmethylpentan-2-ol] | potent activity | potent agonists
6 | CC(C)(CC(O)(Cc1cc2ccccc2[nH]1)C(F)(F)F)c1ccccc1F (stereo not drawn) [1,1,1-Trifluoro-4-(2-fluorophenyl)-2-(1H-indol-2-ylmethyl)-4-methylpentan-2-ol] | potent activity | potent agonists
7 | COc1ccc(F)cc1C(C)(C)CC(O)(Cc1cc2nnccc2[nH]1)C(F)(F)F (stereo not drawn) [1,1,1-Trifluoro-4-(5-fluoro-2-methoxyphenyl)-4-methyl-2-(5H-pyrrolo[3,2-c]pyridazin-6-ylmethyl)pentan-2-ol] | potent activity | potent agonists
8 | Cc1ccc(F)cc1C(C)(C)CC(O)(Cc1cc2cnccc2[nH]1)C(F)(F)F (stereo not drawn) [1,1,1-Trifluoro-4-(5-fluoro-2-methylphenyl)-4-methyl-2-(1H-pyrrolo[3,2-c]pyridin-2-ylmethyl)pentan-2-ol] | potent activity | potent agonists
9 | COc1ccc(F)cc1C(C)(C)CC(O)(Cc1cc2ncncc2[nH]1)C(F)(F)F (stereo not drawn) [1,1,1-Trifluoro-4-(5-fluoro-2-methoxyphenyl)-4-methyl-2-(5H-pyrrolo[3,2-d]pyrimidin-6-ylmethyl)pentan-2-ol] | potent activity | potent agonists
10 | COc1ccc(F)cc1C(C)(C)CC(O)(Cc1ccnc2cc(C)ccc12)C(F)(F)F (stereo not drawn) [1,1,1-Trifluoro-4-(5-fluoro-2-methoxyphenyl)-4-methyl-2-(7-methylquinolin-4-ylmethyl)pentan-2-ol] | potent activity | potent agonists

The next lines start with results.

Row | activity in the GR binding assay [1] | Compound | activity as agonists of the glucocorticoid receptor function in one or more of the above assays [2]
11 | potent activity | CC(C)(CC(O)(Cn1ccc2ncccc21)C(F)(F)F)c1cc(Cl)cc2c1OCC2 (stereo not drawn) [4-(5-Chloro-2,3-dihydrobenzofuran-7-yl)-1,1,1-trifluoro-4-methyl-2-pyrrolo[3,2-b]pyridin-1-ylmethylpentan-2-ol] | potent agonists
12 | potent activity | COc1ccc(C(C)C)cc1C(C)(C)CC(O)(Cc1[nH]c2ccccc2c1C#N)C(F)(F)F (stereo not drawn) [2-[2-Hydroxy-4-(5-isopropyl-2-methoxyphenyl)-4-methyl-2-trifluoromethylpentyl]-1H-indole-3-carbonitrile] | potent agonists
13 | potent activity | Cc1ccc(F)cc1C(C)(C)CC(O)(Cc1cc2cc(N(C)C)ncc2[nH]1)C(F)(F)F (stereo not drawn) [2-(5-Dimethylamino-1H-pyrrolo[2,3-c]pyridin-2-ylmethyl)-1,1,1-trifluoro-4-(5-fluoro-2-methylphenyl)-4-methylpentan-2-ol] | potent agonists
14 | potent activity | CC(C)(CC(O)(Cc1cc2ccncc2[nH]1)C(F)(F)F)c1cc(Cl)cc2c1OCC2 (stereo not drawn) [4-(5-Chloro-2,3-dihydrobenzofuran-7-yl)-1,1,1-trifluoro-4-methyl-2-(1H-pyrrolo[2,3-c]pyridin-2-ylmethyl)pentan-2-ol] | potent agonists
15 | potent activity | CCC(C)(CC(O)(Cc1ccnc2ccccc12)C(F)(F)F)c1ccccc1 (stereo not drawn) [1,1,1-Trifluoro-4-methyl-4-phenyl-2-quinolin-4-ylmethylhexan-2-ol] | potent agonists
16 | potent activity | COc1cc(F)ccc1C(C)(C)CC(O)(Cc1cc(C)nc(C)c1)C(F)(F)F (stereo not drawn) [2-(2,6-Dimethylpyridin-4-ylmethyl)-1,1,1-trifluoro-4-(4-fluoro-2-methoxyphenyl)-4-methylpentan-2-ol] | potent agonists
17 | potent activity | CC(C)(CC(O)(Cc1cc2ccccc2[nH]1)C(F)(F)F)c1cc(F)ccc1OC(F)F (stereo not drawn) [4-(2-Difluoromethoxy-5-fluorophenyl)-1,1,1-trifluoro-2-(1H-indol-2-ylmethyl)-4-methylpentan-2-ol] | potent agonists
18 | potent activity | COC(=O)CNC(=O)c1ccc2[nH]c(CC(O)(CC(C)(C)c3cc(F)ccc3OC)C(F)(F)F)cc2c1 (stereo not drawn) [({2-[4-(5-Fluoro-2-methoxyphenyl)-2-hydroxy-4-methyl-2-trifluoromethylpentyl]-1H-indole-5-carbonyl}amino)acetic acid methyl ester] | potent agonists
19 | potent activity | Cc1ccc(O)c(C(C)(C)CC(O)(Cc2cc3ccccc3[nH]2)C(F)(F)F)c1 (stereo not drawn) [4-Methyl-2-[4,4,4-trifluoro-3-hydroxy-3-(1H-indol-2-ylmethyl)-1,1-dimethylbutyl]phenol] | potent agonists
20 | potent activity | CN(C)c1ccc(C(C)(C)CC(O)(Cc2ccnc3ccccc23)C(F)(F)F)cc1 (stereo not drawn) [4-(4-Dimethylaminophenyl)-1,1,1-trifluoro-4-methyl-2-quinolin-4-ylmethylpentan-2-ol] | potent agonists
21 | potent activity | COc1ccc(F)cc1C(C)(C)CC(O)(Cc1ccnc2c(C)cc(C)cc12)C(F)(F)F (stereo not drawn) [2-(6,8-Dimethylquinolin-4-ylmethyl)-1,1,1-trifluoro-4-(5-fluoro-2-methoxyphenyl)-4-methylpentan-2-ol] | potent agonists
22 | potent activity | COc1ccc(F)cc1C(C)(C)CC(O)(Cc1cc2nc(C#N)ccc2[nH]1)C(F)(F)F (stereo not drawn) [2-[4-(5-Fluoro-2-methoxyphenyl)-2-hydroxy-4-methyl-2-trifluoromethylpentyl]-1H-pyrrolo[3,2-b]pyridine-5-carbonitrile] | potent agonists
23 | potent activity | Cc1cc(C#N)cc2[nH]c(CC(O)(CC(C)(C)c3cccc4c3OCC4)C(F)(F)F)cc12 (stereo not drawn) [2-[4-(2,3-Dihydrobenzofuran-7-yl)-2-hydroxy-4-methyl-2-trifluoromethylpentyl]-4-methyl-1H-indole-6-carbonitrile] | potent agonists
24 | potent activity | COc1ccc(F)cc1C(C)(C)CC(O)(Cc1cc2cc(C(=O)N3CCC(O)C3)ccc2[nH]1)C(F)(F)F (stereo not drawn) [{2-[4-(5-Fluoro-2-methoxyphenyl)-2-hydroxy-4-methyl-2-trifluoromethylpentyl]-1H-indol-5-yl}(3-hydroxypyrrolidin-1-yl)methanone] | potent agonists
